The values below come from US20060052451A1, “Method” (priority 2002, published 2006).

Like-named read-outs stand apart in the source and are kept apart here.

In test [1] the test system is MCF7 cells (human breast cancer-derived). Description: SRB growth inhibition assay, MCF7 cells. The conditions noted are these: 48 hours exposure. Format: cell-based. Here is the method:
(§1) The effect of perfluorinated compounds on the inhibition of tumour cell growth was assessed iii vitro using three human tumour-derived cell lines. Cancer cell lines were tested using the sulphorhodamine B (SRB) assay (which measures cellular protein and is directly related to cell number), which is utilised by the […] to screen anti-cancer agents.
(§2) HT-29 cells (human colon tumour-derived), MCF7 cells (human breast cancer-derived) and PC3 cells (human prostate cancer-derived) were harvested and diluted (to 5×10^4 cells per ml, 1×10^5 cells per ml and 7.5×10^4 cells per ml respectively) in RPMI 1640 medium containing 5% FBS, 2 mM glutamine and. 50 μg/ml gentamicin. 100 μl of cell suspension per well was added to 96 well plates and allowed to attach overnight. Cells were exposed to test compounds dissolved in DMSO in 100 μl of medium to give final drug concentrations of 0, 0.3, 1, 3, 10, 30, 100, 300, 1000 and 3000 μM (and DMSO at 0.25%). (n=6 for each drug concentration). After 48 hours, cells were fixed in 10% trichloroacetic acid (TCA) at 4° C. for 1-2 hours then washed using water and subsequently air-dried. 100 μl SRB solution (0.4%) in 1% Acetic Acid was added to each well, and plates were incubated at room temperature for 10 minutes. Unbound dye was removed by washing with 1% acetic acid. Plates were air-dried and bound stain was solubilised in 10 mM Tris base and the absorbance read at 520 nm.

Test [2] concerns the target T1, human PPAR-gamma ligand binding domain (Homo sapiens, UniProt P37231).
T1 sequence (P37231 202-505): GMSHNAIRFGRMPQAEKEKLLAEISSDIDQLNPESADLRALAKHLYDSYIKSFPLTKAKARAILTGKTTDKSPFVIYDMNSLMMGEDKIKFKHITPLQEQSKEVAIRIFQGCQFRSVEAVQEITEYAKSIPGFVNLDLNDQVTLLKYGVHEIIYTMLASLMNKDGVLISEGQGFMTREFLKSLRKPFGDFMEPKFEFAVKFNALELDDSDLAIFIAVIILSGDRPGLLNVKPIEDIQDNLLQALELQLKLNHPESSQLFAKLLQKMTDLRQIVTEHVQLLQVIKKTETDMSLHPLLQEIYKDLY
Nature of the test: PPAR gamma ligand binding (displacement of cis-parinaric acid).

Test [3] has as its target T2, human PPAR-alpha ligand binding domain (Homo sapiens, UniProt Q07869).
T2 sequence (Q07869 179-468): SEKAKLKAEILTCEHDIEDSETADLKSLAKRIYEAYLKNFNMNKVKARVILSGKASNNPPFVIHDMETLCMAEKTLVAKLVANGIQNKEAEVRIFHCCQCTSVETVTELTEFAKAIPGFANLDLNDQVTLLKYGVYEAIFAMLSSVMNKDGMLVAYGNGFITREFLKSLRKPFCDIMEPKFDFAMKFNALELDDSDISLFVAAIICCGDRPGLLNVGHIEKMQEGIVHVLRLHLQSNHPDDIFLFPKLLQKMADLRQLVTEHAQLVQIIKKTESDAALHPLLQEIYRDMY
Description: PPAR alpha ligand binding (displacement of DAUDA). Particulars: for Kd: DAUDA displacement.

The target of test [4] is T3, PPAR delta (Homo sapiens, UniProt Q03181).
T3 construct: 25 ng of vector DNA carrying PPAR alpha, delta or gamma; expressed in transfected cells; host or cells: COS-1 (African green monkey kidney cells)
T3 sequence (Q03181 1-441): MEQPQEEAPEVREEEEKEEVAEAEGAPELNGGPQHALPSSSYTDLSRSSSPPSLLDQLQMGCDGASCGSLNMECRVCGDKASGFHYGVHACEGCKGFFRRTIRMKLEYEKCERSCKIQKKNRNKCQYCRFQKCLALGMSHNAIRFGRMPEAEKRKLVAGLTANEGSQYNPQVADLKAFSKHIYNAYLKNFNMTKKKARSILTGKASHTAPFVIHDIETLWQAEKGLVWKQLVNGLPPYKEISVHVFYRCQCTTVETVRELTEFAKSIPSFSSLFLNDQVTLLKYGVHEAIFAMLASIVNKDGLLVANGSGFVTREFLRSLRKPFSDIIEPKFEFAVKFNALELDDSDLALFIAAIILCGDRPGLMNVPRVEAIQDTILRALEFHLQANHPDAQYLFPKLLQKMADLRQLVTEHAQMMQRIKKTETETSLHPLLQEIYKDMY
Description: PPAR delta transactivation assay in COS-1 cells. More on the design: Fold activation of PPAR delta: dose or concentration left out as unconfirmed. Format: cell-based. Particulars: for Fold activation of PPAR delta: mean±SD n=3; for Inhibition of activation of PPAR delta (by a factor of): transactivation assay.

Test [5] concerns the target T4, PPAR gamma (Homo sapiens, UniProt P37231).
T4 construct: 25 ng of vector DNA carrying PPAR alpha, delta or gamma; expressed in transfected cells; host or cells: COS-1 (African green monkey kidney cells)
T4 sequence (P37231 1-505): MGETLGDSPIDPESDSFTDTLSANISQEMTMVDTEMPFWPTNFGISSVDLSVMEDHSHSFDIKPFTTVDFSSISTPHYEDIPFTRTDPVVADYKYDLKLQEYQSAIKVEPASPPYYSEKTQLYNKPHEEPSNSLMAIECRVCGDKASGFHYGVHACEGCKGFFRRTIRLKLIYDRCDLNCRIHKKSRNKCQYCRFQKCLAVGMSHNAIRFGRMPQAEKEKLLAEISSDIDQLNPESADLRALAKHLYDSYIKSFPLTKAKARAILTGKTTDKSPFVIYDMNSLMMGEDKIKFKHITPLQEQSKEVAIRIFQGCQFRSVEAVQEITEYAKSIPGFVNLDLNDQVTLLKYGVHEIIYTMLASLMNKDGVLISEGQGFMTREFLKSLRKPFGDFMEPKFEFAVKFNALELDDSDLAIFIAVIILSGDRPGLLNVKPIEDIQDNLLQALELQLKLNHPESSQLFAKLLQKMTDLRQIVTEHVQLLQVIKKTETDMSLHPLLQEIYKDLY
Description: PPAR gamma transactivation assay in COS-1 cells. In kind it is cell-based.

The nature of test [6]: 7-day oral gavage study, metabolic parameters, body weight and food consumption in CR SD rats. In kind it is in vivo, rat. Particulars: for Cholesterol (plasma) / Glucose (plasma) / Insulin (plasma) / Triglycerides (plasma): n=5. The method, then: Two groups (n=5) of CR SD rats (approximately 300 g) were treated with 2 dose levels of perfluorinated compounds (15 and 25 mg/kg/day body weight). Animals were administered test substances, dissolved in corn oil, by oral gavage, daily for 7 days. One group of 20 CR SD rays was also treated with vehicle (corn oil) alone. Body weight and food consumption were monitored daily.
Twenty-four hours after the last dose the animals were killed by an increasing concentration of carbon dioxide. Blood was collected by cardiac puncture and plasma was prepared and stored at −70° C. until analysed.
Plasma was analysed for triglycerides, cholesterol, and glucose, using kits purchased from Sigma. Concentrations of plasma insulin were determined using a commercially available enzyme-immunoassay-based kit from Amersham Biosciences. All assays were carried out as specified by the manufacturer.

Test [7] has as its system PC3 cells (human prostate cancer-derived). Description: SRB growth inhibition assay, PC3 cells. Format: cell-based. The method, then: as §1, §2
Test [8] deals with HT-29 cells (human colon tumour-derived). Nature of the test: SRB growth inhibition assay, HT-29 cells. Particulars: 48 hours exposure. Format: cell-based. The method, then:
as §1, §2

In test [9] the test system is three human tumour-derived cell lines (HT-29, MCF7, PC3). Nature of the test: SRB growth inhibition, summary over the three human tumour cell lines. In kind it is cell-based. The conditions noted are these: over HT-29, MCF7 and PC3. Here is the method:
as §1, §2

The mark [10] stands for this setting: at 10 μM (maximal activation by test compound), value in parenthesis = positive control at 10 μM.
Setting [11] is: 15 mg/kg/day oral gavage 7 days.
The mark [12] stands for this setting: 25 mg/kg/day oral gavage 7 days.
Setting [13] is: Homo sapiens, PC-3, 48 hours exposure.

As to `O=C(O)C(F)(F)C(F)(F)C(F)(F)C(F)(F)C(F)(F)C(F)(F)F` [PFHA, Perfluoroheptanoic acid], in test [1] (Homo sapiens, MCF7, 48 h), the IC50 (usually the concentration that inhibits the measured activity by half) came to 573 µM. The compound further had a Kd in [2] of 99 µM. Further, the “Reduction in binding affinity for PPAR alpha compared to PFOA” value in [3] was determined as 30 fold. Moreover, in test [4], the “Fold activation of PPAR delta” value was found to be 0.45 ± 0.28 fold and the “Inhibition of activation of PPAR delta (by a factor of)” value (“Inhibition of activation of PPAR delta” for short) is 2.2. In addition, the “Fold activation of PPAR gamma” value in test [5] (setting [10]) is on record as 3.43 ± 2.62 fold. Further, in test [6] (setting [11]), the “Cholesterol (plasma)” value turned out to be 1.50 ± 0.23 mmol/L, the “Glucose (plasma)” value came out at 16.43 ± 2.59 mmol/L, the “Insulin (plasma)” value stood at 114.2 ± 90.06 ng/mL and the “Triglycerides (plasma)” value is 0.94 ± 0.20 mmol/L. In addition, in test [6] (setting [12]), the “Cholesterol (plasma)” value is 1.46 ± 0.17 mmol/L, the “Glucose (plasma)” value came out at 18.15 ± 2.78 mmol/L, the “Insulin (plasma)” value was 165.1 ± 114.4 ng/mL and the “Triglycerides (plasma)” value was found to be 0.75 ± 0.26 mmol/L. In test [7] (setting [13]), this compound showed an IC50 of 321 µM. This compound also displayed an IC50 in [8] (Homo sapiens, HT-29, 48 h) of 371 µM. In addition, the IC50 in [9] (Homo sapiens) was 200 to 600 µM.

In the case of `O=C(O)C(F)(F)C(F)(F)F` [PFPA, Perfluropropionic acid], the IC50 in test [1] was more than 3000 µM; in test [7] (48 hours exposure), more than 3000 µM; in [8] it was more than 3000 µM; in [9] it was approximately 3000 µM. Also, the “Reduction in binding affinity for PPAR gamma compared to PFOA” value in test [2] is approximately 2 fold. The Kd in [2] (read-out: PPAR Receptor Binding Kd Gamma (apparent Kd), cis-parinaric acid displacement) was 0.6 µM; in test [3] (read-out: PPAR Receptor Binding Kd Alpha (apparent Kd)), 2 µM. In test [4], the “Fold activation of PPAR delta” value was found to be 0.63 ± 0.25 fold. For the same compound, the “Inhibition of activation of PPAR delta” value in [4] came out at 1.6. Also, in test [5] (at 1 mM, mean±SD n=3), the “Fold activation of PPAR gamma” value was found to be 1.86 ± 0.81 fold. Besides, the “Cholesterol (plasma)” value in test [6] (setting [11]) was 1.28 ± 0.10 mmol/L; in test [6] (setting [12]) it was 1.39 ± 0.39 mmol/L. Besides, the “Glucose (plasma)” value is 15.46 ± 1.13 mmol/L in test [6] (setting [11]) and 14.97 ± 1.29 mmol/L in [6] (setting [12]). The “Insulin (plasma)” value in test [6] (setting [11]) was 129 ± 36.05 ng/mL; in test [6] (setting [12]) it was 179.7 ± 177.1 ng/mL. In addition, the “Triglycerides (plasma)” value in [6] (setting [11]) came out at 1.02 ± 0.38 mmol/L; in test [6] (setting [12]) it was 0.95 ± 0.17 mmol/L. In addition, in test [6] (15 and 25 mg/kg/day, continued till end of treatment), the “Bodyweight change” value is recorded as “lost bodyweight after day 3”.

Turning to `O=C(O)C(F)(F)C(F)(F)C(F)(F)C(F)(F)F` [PFPenA, Perfluoropentanoic acid], the 50% inhibitory concentration (IC50) in test [1] (Homo sapiens, MCF7, 48 h) was more than 3000 µM; in test [7] (setting [13]), 2630 µM; in test [8] (Homo sapiens, HT-29, 48 h) it was more than 3000 µM; in [9] (Homo sapiens), approximately 3000 µM. The Kd in [2] came to 17 µM; in [3] (PPAR Receptor Binding Kd Alpha (apparent Kd)), 62 µM. Further, the “Reduction in binding affinity for PPAR gamma compared to PFOA” value in test [2] is “approximately 50 fold”. Moreover, the “Reduction in binding affinity for PPAR alpha compared to PFOA” value in test [3] was 10 fold. Also, the “Fold activation of PPAR delta” value in [4] turned out to be 0.45 ± 0.04 fold. Besides, the “Inhibition of activation of PPAR delta” value in test [4] stood at 2.2. The “Fold activation of PPAR gamma” value in test [5] (setting [10]) is recorded as 5.07 ± 2.29 fold. In addition, the results for the “Cholesterol (plasma)” value in test [6] (setting [11]) and in test [6] (setting [12]) were 1.83 ± 0.41 mmol/L and 1.67 ± 0.20 mmol/L, respectively. Besides, the “Glucose (plasma)” value in test [6] (setting [11]) worked out at 16.22 ± 1.29 mmol/L; in test [6] (setting [12]), 16.67 ± 0.93 mmol/L. Moreover, the “Insulin (plasma)” value was 124.7 ± 126.3 ng/mL in test [6] (setting [11]) and 62.6 ± 68.26 ng/mL in [6] (setting [12]). Besides, the “Triglycerides (plasma)” value in [6] (setting [11]) was found to be 1.24 ± 0.04 mmol/L; in test [6] (setting [12]) it was 1.07 ± 0.37 mmol/L. The “Plasma insulin, % of control values” in test [6] (25 mg/kg) is 33.9%.
